A word on the inhibition: it is how much of the control response was suppressed. Low readings indicate little suppression, high ones strong suppression.

The source of these data is US5258300A, “Method of inducing lysine overproduction in plants” (Molecular Genetics Research and Development Limited …, priority 1988, dated 1993).

Assay [1] concerns leaf disks from plant 327. As to the kind of experiment: Leaf disk AEC screen, dap A+ plant 327. It counts as cell-based, Nicotiana tabacum SR1. How it is done: (§1) Plant tissue was initially screened for expression of the introduced dap A gene by evaluating resistance to the lysine analog S(2-aminoethyl)cysteine(AEC). AEC is a potent inhibitor of dihydrodipicolinic acid synthase of plants, but the bacterial DHDPS is much less sensitive to it. Leaf disks were prepared from surface-sterilized leaves as described in the transformation protocol. The disks were placed, (four disks per plate, two plates per treatment) on shooting medium supplemented with 1 mM L-arginine and AEC at 0, 0.1, 0.2 or 0.4 mM. Plates containing shooting medium supplemented with 75 μg/ml kanamycin were included for each plant tested to check the selectable marker. After one week at 26° C. in the light, the individual leaf disks were weighed and the average fresh weight and standard deviation were determined for each treatment.

The test system of assay [2] is leaf disks from water control plant 101. As to the kind of experiment: Leaf disk AEC screen, water control plant 101. It counts as cell-based, Nicotiana tabacum SR1. The procedure:
as §1

The subject of assay [3] is seedlings of self-pollinated 327. As to the kind of experiment: AEC resistance in seedlings, progeny of 327. The class given is in vivo, Nicotiana tabacum SR1. The note with it: Nicotiana tabacum, 336 h, two weeks postplating, read-out: Avg. Root Length. How it is done:
(§2) Tobacco plant 327 flowered and was allowed to self-pollinate and produce seed. Mature, dry seed was collected, surface-sterilized with 10% bleach, and rinsed well with sterile water. Seeds were plated (50 seeds per plate, two plates per treatment) on gridded germination plates (1/4 MS salts, 2.5 gm/l Gelrite) containing AEC at 0, 1, 10, 30, 100 and 300 μM AEC. Seeds from self-pollinated 101 were treated identically as controls. All seeds germinated in 3-4 days. After 10 days, the number of green seedlings on each plate was counted. After two weeks, the seedlings were gently pulled from the Gelrite and root lengths were measured.

The subject of assay [4] is seedlings of self-pollinated 101. As to the kind of experiment: AEC resistance in seedlings, progeny of 101. The class given is in vivo, Nicotiana tabacum SR1. The note with it: Nicotiana tabacum, 336 h, two weeks postplating, read-out: Avg. Root Length. The procedure: as §2
Assay [5] concerns DHDP synthase activity in the leaves of 327. Briefly: DHDP synthase activity (o-aminobenzaldehyde assay) in leaf extracts of 327. It counts as biochemical, Nicotiana tabacum SR1 (E. coli dap A gene). The following applies: 327 leaf extract. How it is done:
(§3) Young leaves of 327 and seed-grown NT-SR1 plants were extracted as follows. One to two grams of deribbed leaves were ground at 4° C. in 2 ml extraction buffer (0.1M potassium phosphate (pH 7.5 at 4° C.), 2 mM EDTA, 1 mM β-mercaptoethanol, 10 mM sodium pyruvate) in the presence of 0.14 gm polyvinylpyrrolidone per gram of tissue. The extract was filtered through Miracloth (Calbiochem) and then centrifuged for 10 minutes at 8000×g (4° C.). The supernatant was slowly brought to 40% saturation by adding finely ground solid ammonium sulfate at 4° C. with gentle stirring. The precipitate was removed by centrifugation. The supernatant was brought to 66% ammonium sulfate saturation and the 40-66% precipitate was collected by centrifugation as before. The pellet was resuspended in column buffer (50 mM Tris-HCl (pH 7.5 at 4° C.), 1 mM EDTA, 10 mM sodium pyruvate, 10% glycerol) and passed through a Sephadex G-25 column (Sigma) to desalt.
(§4) Protein concentrations were determined by the dye-binding method of Bradford (REF) using bovine serum albumin fraction V powder in distilled water as the standard.
(§5) Dihydrodipicolinic acid synthase activity was monitored using the o-aminobenzaldehyde (ABA) assay (Yugari et al., J. Biol. Chem., 240, 4710-4716 (1965)). […] The pink color was allowed to develop for one hour at 25° C. and then the optical density was measured at 520 nm.

Assay [6] deals with T1, DHDP synthase activity in NT-SR1 leaves (Nicotiana tabacum, UniProt Q42948).
T1 construct: Young leaves of 327 and seed-grown NT-SR1 plants were extracted as follows; from tissue; host or cells: young leaves of seed-grown NT-SR1 plants, 40-66% ammonium sulfate fraction of the leaf extract
T1 sequence (Q42948 34-359): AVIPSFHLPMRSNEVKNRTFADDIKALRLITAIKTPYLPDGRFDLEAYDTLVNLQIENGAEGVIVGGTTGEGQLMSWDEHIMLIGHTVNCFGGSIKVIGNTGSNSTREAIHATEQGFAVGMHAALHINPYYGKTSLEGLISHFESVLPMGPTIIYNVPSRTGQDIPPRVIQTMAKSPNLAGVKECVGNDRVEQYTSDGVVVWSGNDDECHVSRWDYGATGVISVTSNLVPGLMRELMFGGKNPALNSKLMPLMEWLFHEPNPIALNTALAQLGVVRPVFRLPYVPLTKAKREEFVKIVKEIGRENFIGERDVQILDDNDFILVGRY
Briefly: DHDP synthase activity (o-aminobenzaldehyde assay) in leaf extracts of seed-grown NT-SR1. It counts as biochemical. The note with it: NT-SR1 leaf extract. How it is done:
as §3, §4, §5

Assay [7] deals with Dihydrodipicolinic acid synthase. The following applies: in vitro; cited from earlier work.

Regarding `NCCSCC(N)C(=O)O` (stereo not drawn) [AEC, S(2-aminoethyl)cysteine], the activity at 100 µM in assay [1] (Nicotiana tabacum, foliar, 168 h, AEC 0.1 mM, plant 327 leaf disks, after one week, read-out: Fresh Weight) stood at 88%; in assay [2] (Nicotiana tabacum, foliar, 168 h, AEC 0.1 mM, plant 101 leaf disks, after one week, read-out: Fresh Weight), 32%; in assay [3] (AEC 100 μM), 21%; in assay [4] (AEC 100 μM), 0%. The activity at 200 µM in assay [1] (Nicotiana tabacum, foliar, 168 h, AEC 0.2 mM, plant 327 leaf disks, after one week, read-out: Fresh Weight) was determined as 81%; in assay [2] (Nicotiana tabacum, foliar, 168 h, AEC 0.2 mM, plant 101 leaf disks, after one week, read-out: Fresh Weight) it was 15%. In addition, the activity at 400 µM in assay [1] (Nicotiana tabacum, foliar, 168 h, AEC 0.4 mM, plant 327 leaf disks, after one week, read-out: Fresh Weight) is 71%; in assay [2] (Nicotiana tabacum, foliar, 168 h, AEC 0.4 mM, plant 101 leaf disks, after one week, read-out: Fresh Weight) it was 10%. The “Leaf disk growth in the presence of AEC” value in assay [1] (putative dap A+ plants) is “remain green and growing”; in assay [2] (control plants), “strongly inhibited”. In assay [2] (control plants, medium containing at least 0.2 mM AEC), the Leaf disk appearance result was “brown and shriveled”. The activity at 1 µM in assay [3] (AEC 1 μM) stood at 111%; in assay [4] (AEC 1 μM), 46%. The activity at 3 µM in assay [3] (AEC 3 μM) was 87%; in assay [4] (AEC 3 μM) it was 33%. Also, the activity at 10 µM in assay [3] (AEC 10 μM) is 51%; in assay [4] (AEC 10 μM), 27%. Also, the values for the activity at 30 µM in assay [3] (AEC 30 μM) and in assay [4] (AEC 30 μM) were 46% and 18%, respectively.
Turning to `NCCCC[C@H](N)C(=O)O` [L-lysine], the entries for the “Inhibition of DHDP synthase activity” value in assay [5] (100 μM L-lysine), in assay [5] (500 μM L-lysine) and in assay [6] (500 μM L-lysine) were “completely resistant”, 14% and “no activity could be detected”, respectively. For the same molecule, the inhibition at 100 µM in assay [6] (100 μM L-lysine) came out at 87%. The “Lower sensitivity of E. coli DHDPS to inhibition by lysine compared to the same enzyme from plants” value in assay [7] is listed as “at least 200 fold”.
